Measurements as given in patent publication US20260325489A1, “PHARMACEUTICAL COMPOSITIONS COMPRISING 5-METHOXY-N,N-DIMETHYLTRYPTAMINE (5-MEO-DMT)” (Beckley Psytech Limited, priority 2023, published 2026).
Entries after “also recorded” stand apart in the source; their conditions may differ.

Columns and labels:
[1] = thermal decomposition properties of salt forms (TGA); type: physicochemical
Source text: The thermal decomposition properties of a range of salt forms of 5-MeO-DMT has been investigated and is summarised in the report below: […]

[2] = physical stability / hygroscopicity of salts and formulations
[3] = type: in vivo, human (healthy subjects)
Source text: (§1) The applicant has funded double-blind, randomised, Phase 1, single ascending dose studies to evaluate the safety, tolerability and pharmacokinetic profile of intranasal 5-MeO-DMT hydrochloride and intranasal 5-MeO-DMT benzoate in healthy subjects. […] It is desirable that a compound for use in treatment has dose-proportional pharmacokinetics, for example, to facilitate dose and dose regimen adjustment in patients. In an embodiment, there is provided a salt of 5-MeO-DMT with dose-proportional pharmacokinetics, optionally for use in the methods disclosed herein. In an embodiment, the salt of 5-MeO-DMT with dose-proportional pharmacokinetics is the benzoate or HBr salt, optionally the benzoate salt. A double-blind, randomised, Phase 1, single ascending dose study to evaluate the safety, tolerability and pharmacokinetic profile of a liquid intranasal 5-MeO-DMT HCl (5-MeO-DMT HCl, HPMC, water for injection (WFI) and a sodium hydroxide solution to adjust pH) pharmaceutical composition/formulation in healthy subjects was performed.
A double-blind, randomised, Phase 1, single ascending dose study to evaluate the safety, tolerability and pharmacokinetic profile of intranasal 5-MeO-DMT benzoate in healthy subjects was performed.

[4] = Phase 1 single ascending dose study of intranasal 5-MeO-DMT HCl in healthy subjects; type: in vivo; conditions: human plasma
Source text: as §1

[5] = dissolution rate (UV-fibre optic dissolution apparatus, simulated nasal fluid); type: physicochemical
Protocol: The dissolution rate of SDD was determined using a method comprising the use of a UV-fibre optic-based dissolution apparatus (one such suitable device is the Rainbow® Dynamic Dissolution Monitor by Pion Inc) and simulated nasal fluid. The simulated nasal fluid comprises 7.45 g/L NaCl, 1.29 g/L KCl, 0.32 g/L CaCl2)×2H2O and deionised water.

[6] = solid state by XRPD and DSC; type: physicochemical; conditions: XRPD and/or DSC, after spray drying or lyophilisation
Protocol: Unless otherwise stated herein all X-ray powder diffractograms (XRPD) were generated using an X-ray wavelength of 1.5406 Å; all modulated differential scanning calorimetry (DSC) thermograms were generated using a 2 °C/min heating rate.

Compound: O=C(O)CC(O)C(=O)O (centres unmarked) [Malate]
- temperature at which gross decomposition starts [1]: Melt 100 °C, gross decomp starts 250 °C

Compound: Oxalate
- mass loss [1]: Melts 176 °C, full mass loss

Compound: Br.COc1ccc2[nH]cc(CCN(C)C)c2c1 [5-MeO-DMT hydrobromide]
- temperature at which gross decomposition starts [1]: Melt 149 °C, gross decomp starts 220 °C
- physical / state stability, in words [2]: stable amorphous dispersion without the need for any additional drying step post spray drying; also recorded: state-stable when stored at above the temperature range 2-8 °C

Compound: O=C(O)C(O)C(O)C(=O)O (centres unmarked) [Tartrate]
- decomposition temperature [1]: Melt ~140 °C, decomp ~200 °C

Compound: Glycolate
- temperature at which gross decomposition starts [1]: Melt 95 °C, gross decomp starts 170 °C

Compound: CN(C)CCc1c[nH]c2ccc(O)cc12 [Bufotenin]
- detection of O-demethylated metabolite (Bufotenin) ([3]; 6 mg dose level of intranasal 5-MeO-DMT benzoate, after the 16 minutes time point): only detected at very low levels

Compound: C1=Cc2cccc(OC[C@H]3CNCCO3)c2C1.O=S(=O)(O)c1ccccc1 [Benzenesulfonate]
- temperature at which gross decomposition starts [1]: Melt 76 °C, gross decomp starts 280 °C

Compound: O=C(O)CCC(=O)C(=O)O [Ketoglutarate]
- temperature at which gross decomposition starts [1]: Melt 85 °C, gross decomp starts 170 °C

Compound: Fumarate
- decomposition temperature [1]: Decomp around 200 °C

Compound: COc1ccc2[nH]cc(CCN(C)C)c2c1.Cl [5-MeO-DMT HCl]
- mean concentration profiles ([4]; 5 mg, 8 mg, 10 mg, 11 mg and 14 mg): substantially similar
- dose-proportional pharmacokinetics ([4]; liquid intranasal HCl formulation, 5, 8, 10, 11 and 14 mg): does not display dose-proportional pharmacokinetics
- stability profile, in words [2]: issues relating to stability, discoloration and a reduction in desirable pharmacokinetic properties

Compound: COc1ccc2[nH]cc(CCN(C)C)c2c1.O=C(O)c1ccccc1 [5-MeO-DMT benzoate]
- mean Cmax ([3]; intranasal, 12 mg dosage, human plasma): 29 ng/mL
- mean Tmax ([3]; intranasal, human plasma): 9.5 min
- dissolution rate / profile, in words [5]: almost instantaneous dissolution rate; also recorded: a reduced dissolution rate as compared to the amorphous form of 5-MeO-DMT salts
- solid state of the dispersion produced [6]: amorphous dispersion with no sign of the crystalline benzoate salt
- mass loss [1]: full mass loss
- temperature at which decomposition starts [1]: ~220 °C
- physical / state stability, in words [2]: storage at 2-8° C., and protection from moisture, prevents recrystallisation and aggregation; also recorded: stable crystalline spray dried dispersion particle with no respirable API fines or significant aggregation
- stability profile, in words [2]: good stability profile

Compound: Phosphate
- decomposition temperature [1]: Decomp around 200 °C

Compound: Tosylate
- temperature at which gross decomposition starts [1]: Melt 110 °C, gross decomp starts 280 °C
